Data: paper PMC6478789, “A chemical toolbox for the study of bromodomains and epigenetic signaling” (Nature Communications, 2019)
Read-outs that look alike come from different tables or passages of the source. Blank lines part the entries; values can stand above or below the compound they belong to.

Experiments:
[1] = molecular target: T1, CBP (Homo sapiens, UniProt Q92793); settings: ITC data, cited from earlier work
T1 construct: Recombinant protein domains (bromodomain or kinases) at a concentration of 2 μM

[2] = molecular target: TAF1L(2); set-up: method as in ref 13 (suppl.); settings: ITC data; ref 13 (suppl.); cited from earlier work
[3] = molecular target: BRPF2; settings: ITC data, cited from earlier work
[4] = system: three TNBC lines; test: Combinatorial screen of BRD inhibitors with or without BAY-876 (confluency); format: cell-based, human
Experimental: Fig. 6 BRD inhibitors leverage metabolic adaptations induced by glucose transporter I (GLUT1) inhibition in TNBC. a BRD inhibitor screening across ten TNBC cell lines. Cells were treated with indicated BRD inhibitors at 3 μM for 7 days. Confluency was measured using an IncuCyte ZOOM live cell imaging device. Data shown are mean ± s.d. of n = 4 independent cell culture grown and treated cells. A two-sided Student’s t test was used to derive the p-values. b SLC2A1 gene expression in the The Cancer Genome Atlas (TCGA) breast datasets. The cohorts were divided into TNBCs (red) and non-TNBCs (blue) according to PAM50 classification. Gene expression is reported as median-centered expression log2 values. The number of patients (n) per group is indicated. P-values were determined using a Wilcoxon's rank-sum test. c Glucose uptake in MDA-MB-436 cells in response to BAY-876 treatment relative to vehicle. MDA-MB-436 cells were treated with dimethyl sulfoxide (DMSO) or 3 µM BAY-876 for 5 days. Graph indicates mean, error bars denote s.d. from three independent assays and p-value was computed using the Benjamini-Hochberg t test; ***p < 0.001. d Effects of BAY-876 treatment on the intracellular acetyl-CoA level. Graph indicates mean, error bars denote s.d. from three independent assays and p-value was computed using the Benjamini-Hochberg t test; ***p < 0.001. e Effects of BAY-876 treatment on intracellular NAD^+/NADH level. Graph indicates the mean, error bars denote s.d. from three independent assays and p-value computed using the Benjamini-Hochberg t test; **p < 0.01. f Immunoblot analysis of H3 and H4 acetylation in MDA-MB-436 cells before and after BAY-876 treatment. P-value computed using the Benjamini-Hochberg t test; ***p < 0.001. g Cell growth effects of BAY-876 treatment on three representative cell lines. n.s. not significant. h Combinatorial screening of BRD inhibitors with or without 3 μM BAY-876 across ten TNBC cell lines. Cell confluency was obtained from the endpoint Incucyte scanning. (Left) Heatmap of the combinatorial screening results; (Right) Cell confluency after treatment with three potential BRDi candidates at 3 μM in the presence or absence of 3 μM BAY-876 in three representative cell lines. Graph indicates mean, error bars denote s.d. from three independent assays and p-values were computed using the Benjamini-Hochberg t test; **p < 0.01; ***p < 0.001. Raw data images are available in Supplementary Fig. 4
(§1) TNBC cell lines were seeded in sterile, transparent 384-well plates at 500 cells per well in 50 µl media. Chemical probes were delivered in dimethyl sulfoxide (DMSO). Cell confluency at 7 days was evaluated using an Incucyte ZOOM live cell imaging device (Essen Bioscence) and analyzed with the Incucyte ZOOM (2016A) software based on phase contrast image.

[5] = molecular target: T2, BAZ1B (Homo sapiens, UniProt Q9UIG0); test: BROMOscan ligand-binding assay
T2 sequence (Q9UIG0 1339-1443 limits assumed): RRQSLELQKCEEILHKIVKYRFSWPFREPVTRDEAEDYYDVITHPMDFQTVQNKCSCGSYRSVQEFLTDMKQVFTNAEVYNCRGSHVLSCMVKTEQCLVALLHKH
From the text: BROMOscan is a binding assay based on the well-known KINOMEscan technology. This assay measures the binding of a DNA-tagged bromodomain to an immobilized BRD ligand. If an inhibitor is present, it will compete with the bromodomain binding to the immobilized ligand, resulting in reduction of a quantitative PCR (qPCR) signal in a dose-dependent manner.

[6] = system: MDA-MB-436 cells; test: Confluency with BRPF inhibitors and BAY-876; format: cell-based, human; settings: 3 μM, 7 days
Experimental: Graph indicates mean, error bars denote s.d. from eight wells (from two independent assays) and p-value was computed using the Benjamini-Hochberg t test; ***p < 0.001. d Immunoblot validation of BRPF knockdown in MDA-MB-436 cells. e Quantitative real-time PCR (RT-qPCR) validation of BRPF knockdown in MDA-MB-436 cells. […] Raw data images are available in Supplementary Fig. 4
as §1

[7] = KD (BROMOscan), sheet prints no unit (nM)
[8] = KD, BROMOscan Gene Symbol BAZ1B

T1 sequence (Q92793 1085-1192 limits assumed): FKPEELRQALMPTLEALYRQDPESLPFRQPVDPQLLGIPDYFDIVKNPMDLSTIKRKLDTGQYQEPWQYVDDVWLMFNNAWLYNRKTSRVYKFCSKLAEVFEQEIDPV

Kd [5, 7]: > 30000 nM
Kd [5, 8]: > 100000 nM
SMILES: CCCOc1ccn2c(C(C)=O)cc(-c3ccccc3S(C)(=O)=O)c2c1 [GSK2801]

Kd [5, 7]: > 30000 nM
Kd [5, 8]: > 100000 nM
SMILES: CCC(=O)N1CCOc2c(cc(-c3ccc(OC)c(OC)c3)cc2OCC2CCCN(C)C2)C1 (stereo not drawn) [I-CBP112]
Kd ([1]; ref 9 (suppl.), read-out: KD (nM), CBP): 151 nM

Kd [5, 7]: > 30000 nM
Kd ([5]; KD, BAZ1B): > 100000 nM
SMILES: O=C(C=CN1CC2CC1CN2c1ccccn1)c1ccccc1O (stereo not drawn) [PFI-3]

Kd [5, 7]: > 30000 nM
Kd ([5]; KD, BROMOscan, BAZ1B): > 100000 nM
SMILES: COc1ccc(CCc2nc3cc(-c4c(C)noc4C)ccc3n2C[C@H](C)N2CCOCC2)cc1Cl [SGC-CBP30]

Kd ([5]; KD, BAZ1B): > 1.4e+07 nM
SMILES: O=C(O)c1ccccc1O [Salicylic Acid]

The remaining lines, values behind:

SMILES: Cc1cc2c(cc1N1C(=O)c3cccc4c(CCCO)ccc(c34)C1=O)n(C)c(=O)n2C [BAY-299]
Kd ([1]; ref 13 (suppl.), read-out: KD (nM), off target CBP): 1390 nM
Kd [2]: 234 nM
Kd ([3]; ref 13 (suppl.)): 44 nM

SMILES: Cc1c(NC(=O)c2cc(C(N)=O)nc3cc(F)ccc23)c(C(F)(F)F)nn1Cc1ccc(C#N)cc1 [BAY-876]
cell growth, treatment alone ([4]; 3 μM alone): no effect

SMILES: COc1cc2c(cc1NS(=O)(=O)c1ccc(Br)cc1C)n(C)c(=O)n2C [OF-1]
combination effect with BAY-876 across the three cell lines ([4]; 3 μM probe + 3 μM BAY-876): strong synergistic effect across all three cell lines
viability in combination with BAY-876 ([4]; 3 μM probe + 3 μM BAY-876): significant decrease in viability
Kd ([3]; ref 11 (suppl.)): 505 nM
cell viability, co-treatment with BAY-876 [6]: strongest reduction of cell viability
